We go through 33 molecules from ChEMBL document CHEMBL6078668, “Synthesis and biological evaluation of lappaconitine analogues as potential anti-neuroinflammatory agents by side chain modification and scaffold hopping strategy” (Bioorg Med Chem, 2025).

A short description of data set [1]: Cytotoxicity against C57BL/6 mouse BV-2 cells assessed as survival rate at 30 uM incubated for 24 hrs by MTT assay relative to control. The format is toxicity, cell-based. To be noted: read-out: Survival. (In general: Tetrazolium dyes change colour on reduction, which living cells bring about.)
For a further data set, the system named is BV-2. Kind of data set: Anti-neuroinflammatory activity against LPS-stimulated C57BL/6 mouse BV-2 cells assessed as inhibition of NO release at 30 uM preincubated with compound for 4 hrs followed by LPS addition and measured after 24 hrs by Griess reagent based assay relative to control. Particulars: C57BL/6, BV-2, time 28 hrs. The format is functional. (In general: Griess reagent forms a coloured azo dye with nitrite.)

As to `CCN1C[C@]2(OC(=O)c3ccccc3NC(=O)S(=O)(=O)c3ccccc3C#N)CC[C@H](OC)[C@]34C1[C@@H](C[C@H]23)[C@@]1(O)C[C@H](OC)[C@H]2C[C@@H]4[C@]1(O)[C@H]2OC`, the viability at 24 h, 30 µM in data set [1] was 101%. The inhibition (as a rule, the drop in the measured response relative to a control, in per cent) at 30 µM in the data set on BV-2 amounted to 27.5%.
For `CCN1C[C@]2(OC(=O)c3ccccc3NC(=O)S(=O)(=O)c3cncc(Br)c3)CC[C@H](OC)[C@]34C1[C@@H](C[C@H]23)[C@@]1(O)C[C@H](OC)[C@H]2C[C@@H]4[C@]1(O)[C@H]2OC`, in that order: 91.5% and 20.3%.
On the same counts, the results for `CCN1C[C@]2(OC(=O)c3ccccc3NC(=O)C(C)C)CC[C@H](OC)[C@]34C1[C@@H](C[C@H]23)[C@@]1(O)C[C@H](OC)[C@H]2C[C@@H]4[C@]1(O)[C@H]2OC` are 105% and 8.9%.
For `CCN1C[C@]2(OC(=O)c3ccccc3NC(=O)S(=O)(=O)c3cccc(C)c3)CC[C@H](OC)[C@]34C1[C@@H](C[C@H]23)[C@@]1(O)C[C@H](OC)[C@H]2C[C@@H]4[C@]1(O)[C@H]2OC`, in that order: 106% and 46.5%.
Turning to `CCN1C[C@]2(OC(=O)c3ccccc3NC(=O)c3ccc(F)cc3)CC[C@H](OC)[C@]34C1[C@@H](C[C@H]23)[C@@]1(O)C[C@H](OC)[C@H]2C[C@@H]4[C@]1(O)[C@H]2OC`, the viability at 24 h, 30 µM in data set [1] was determined as 104%. For the same molecule, in the data set with BV-2, the inhibition at 30 µM is 22.3%.
As for `CCN1C[C@]2(OC(=O)c3ccccc3NC(=O)S(=O)(=O)c3ccc4c(c3)OCC4)CC[C@H](OC)[C@]34C1[C@@H](C[C@H]23)[C@@]1(O)C[C@H](OC)[C@H]2C[C@@H]4[C@]1(O)[C@H]2OC`, the viability at 24 h, 30 µM in data set [1] was found to be 96.3%. The inhibition at 30 µM with BV-2 came to 9.9%.
On the same counts, the results for `CCN1C[C@]2(OC(=O)c3ccccc3NC(=O)c3ccccc3N(C)C)CC[C@H](OC)[C@]34C1[C@@H](C[C@H]23)[C@@]1(O)C[C@H](OC)[C@H]2C[C@@H]4[C@]1(O)[C@H]2OC` are 101% and 34.7%.
As for `CCN1C[C@]2(OC(=O)c3ccccc3NC(=O)S(=O)(=O)c3cccc(Br)c3)CC[C@H](OC)[C@]34C1[C@@H](C[C@H]23)[C@@]1(O)C[C@H](OC)[C@H]2C[C@@H]4[C@]1(O)[C@H]2OC`, in data set [1], the viability at 24 h, 30 µM came to 102%. For the same molecule, the inhibition at 30 µM with BV-2 amounted to 10%.
`CCN1C[C@]2(OC(=O)c3ccccc3NC(=O)S(=O)(=O)c3ccccc3C(F)(F)F)CC[C@H](OC)[C@]34C1[C@@H](C[C@H]23)[C@@]1(O)C[C@H](OC)[C@H]2C[C@@H]4[C@]1(O)[C@H]2OC`: the viability at 24 h, 30 µM in data set [1] amounted to 107%. For the same molecule, in the data set on BV-2, the inhibition at 30 µM worked out at 13.7%.
Take `CCN1C[C@]2(COC(=O)c3ccccc3NS(=O)(=O)c3cccc(F)c3)CC[C@H](OC)[C@]34C1[C@@H](C[C@H]23)[C@@]1(O)C[C@H](OC)[C@H]2C[C@@H]4[C@]1(O)[C@H]2O`: the viability at 24 h, 30 µM in data set [1] turned out to be 106%. In addition, the inhibition at 30 µM with BV-2 worked out at 17.9%.
On the same counts, the results for `CCN1C[C@]2(OC(=O)c3ccccc3NC(=O)c3ccc(S(C)(=O)=O)cc3)CC[C@H](OC)[C@]34C1[C@@H](C[C@H]23)[C@@]1(O)C[C@H](OC)[C@H]2C[C@@H]4[C@]1(O)[C@H]2OC` are 103% and 20%.
`CCN1C[C@]2(OC(=O)c3ccccc3NC(=O)S(=O)(=O)c3ccc(OC)c(F)c3)CC[C@H](OC)[C@]34C1[C@@H](C[C@H]23)[C@@]1(O)C[C@H](OC)[C@H]2C[C@@H]4[C@]1(O)[C@H]2OC`: in data set [1], the viability at 24 h, 30 µM worked out at 103%. The inhibition at 30 µM with BV-2 was found to be 11.1%.
For `CCN1C[C@]2(COC(=O)c3ccccc3NS(=O)(=O)c3cccc(F)c3)CC[C@H](OC)[C@]34C1[C@@H](C[C@H]23)[C@@]1(O)C[C@H](OC)[C@H]2C[C@@H]4[C@]1(O)[C@H]2OC`, in that order: 102% and 20.1%.
`CCN1C[C@]2(OC(=O)c3ccccc3NC(=O)S(=O)(=O)c3ccc(F)cc3C)CC[C@H](OC)[C@]34C1[C@@H](C[C@H]23)[C@@]1(O)C[C@H](OC)[C@H]2C[C@@H]4[C@]1(O)[C@H]2OC`: in data set [1], the viability at 24 h, 30 µM is 92.7%. Also, the inhibition at 30 µM in the data set with BV-2 was 32.2%.
For `CCN1C[C@]2(OC(=O)c3ccccc3NC(=O)S(=O)(=O)c3ccc(OCc4ccccc4)cc3)CC[C@H](OC)[C@]34C1[C@@H](C[C@H]23)[C@@]1(O)C[C@H](OC)[C@H]2C[C@@H]4[C@]1(O)[C@H]2OC`, in that order: 102% and 21.3%.
For `CCN1C[C@]2(OC(=O)c3ccccc3NC(=O)c3ccc(OC)c(OC)c3)CC[C@H](OC)[C@]34C1[C@@H](C[C@H]23)[C@@]1(O)C[C@H](OC)[C@H]2C[C@@H]4[C@]1(O)[C@H]2OC`, in that order: 102% and 14.3%.
`CCN1C[C@]2(OC(=O)c3ccccc3NC(=O)c3ccc(I)cc3)CC[C@H](OC)[C@]34C1[C@@H](C[C@H]23)[C@@]1(O)C[C@H](OC)[C@H]2C[C@@H]4[C@]1(O)[C@H]2OC`: the viability at 24 h, 30 µM in data set [1] came out at 100%. The inhibition at 30 µM in the data set on BV-2 is 36.1%.
Consider `CCN1C[C@]2(OC(=O)c3ccccc3NC(=O)C3CC3)CC[C@H](OC)[C@]34C1[C@@H](C[C@H]23)[C@@]1(O)C[C@H](OC)[C@H]2C[C@@H]4[C@]1(O)[C@H]2OC`, for which the viability at 24 h, 30 µM in data set [1] worked out at 104%. In addition, the inhibition at 30 µM with BV-2 worked out at 27.7%.
For `CCN1C[C@]2(OC(=O)c3ccccc3NC(=O)S(=O)(=O)c3ccc(C#N)cc3)CC[C@H](OC)[C@]34C1[C@@H](C[C@H]23)[C@@]1(O)C[C@H](OC)[C@H]2C[C@@H]4[C@]1(O)[C@H]2OC`, in that order: 103% and 38.8%.
Regarding `CCN1C[C@]2(OC(=O)c3ccccc3NC(=O)S(=O)(=O)Cc3ccc([N+](=O)[O-])cc3)CC[C@H](OC)[C@]34C1[C@@H](C[C@H]23)[C@@]1(O)C[C@H](OC)[C@H]2C[C@@H]4[C@]1(O)[C@H]2OC`, the viability at 24 h, 30 µM in data set [1] turned out to be 98.9%. For the same molecule, the inhibition at 30 µM with BV-2 worked out at 22.7%.
On the same counts, the results for `CCN1C[C@]2(OC(=O)c3ccccc3NC(=O)S(=O)(=O)c3ccccc3Cl)CC[C@H](OC)[C@]34C1[C@@H](C[C@H]23)[C@@]1(O)C[C@H](OC)[C@H]2C[C@@H]4[C@]1(O)[C@H]2OC` are 100% and 7.8%.
On the same counts, the results for `CCN1C[C@]2(OC(=O)c3ccccc3NC(=O)S(=O)(=O)c3ccc(C(C)=O)cc3)CC[C@H](OC)[C@]34C1[C@@H](C[C@H]23)[C@@]1(O)C[C@H](OC)[C@H]2C[C@@H]4[C@]1(O)[C@H]2OC` are 92.6% and 18%.
With `CCN1C[C@]2(OC(=O)c3ccccc3NC(=O)c3cccc(F)c3)CC[C@H](OC)[C@]34C1[C@@H](C[C@H]23)[C@@]1(O)C[C@H](OC)[C@H]2C[C@@H]4[C@]1(O)[C@H]2OC`, in data set [1], the viability at 24 h, 30 µM is 107%. Also, the inhibition at 30 µM with BV-2 turned out to be 11%.
For `CCN1C[C@]2(OC(=O)c3ccccc3NC(=O)S(=O)(=O)c3ccc(C4CCCCC4)cc3)CC[C@H](OC)[C@]34C1[C@@H](C[C@H]23)[C@@]1(O)C[C@H](OC)[C@H]2C[C@@H]4[C@]1(O)[C@H]2OC`, in that order: 93.7% and 38.5%.
With `CCCc1ccc(S(=O)(=O)C(=O)Nc2ccccc2C(=O)O[C@@]23CC[C@H](OC)[C@]45C([C@@H](C[C@H]24)[C@@]2(O)C[C@H](OC)[C@H]4C[C@@H]5[C@]2(O)[C@H]4OC)N(CC)C3)cc1`, in data set [1], the viability at 24 h, 30 µM was determined as 92.3%. For the same molecule, in the data set on BV-2, the inhibition at 30 µM turned out to be 43.4%.
For `CCN1C[C@]2(OC(=O)c3ccccc3NC(=O)S(=O)(=O)c3ccc(C#N)cc3Cl)CC[C@H](OC)[C@]34C1[C@@H](C[C@H]23)[C@@]1(O)C[C@H](OC)[C@H]2C[C@@H]4[C@]1(O)[C@H]2OC`, the viability at 24 h, 30 µM in data set [1] was 99.4%. In the data set with BV-2, the inhibition at 30 µM came out at 12.5%.
As to `CCCCOC(=O)c1ccccc1NS(=O)(=O)c1ccc(Br)s1`, in data set [1], the viability at 24 h, 30 µM was 104%. Also, in the data set with BV-2, the inhibition at 30 µM is 34.6%.
In the case of `CCN1C[C@]2(OC(=O)c3ccccc3NC(=O)c3ccc(C)cc3C)CC[C@H](OC)[C@]34C1[C@@H](C[C@H]23)[C@@]1(O)C[C@H](OC)[C@H]2C[C@@H]4[C@]1(O)[C@H]2OC`, the viability at 24 h, 30 µM in data set [1] worked out at 104%. In the data set on BV-2, the inhibition at 30 µM worked out at 16%.
In the case of `CCc1ccc(C(=O)Nc2ccccc2C(=O)O)cc1`, the viability at 24 h, 30 µM in data set [1] came out at 101%. In addition, in the data set with BV-2, the inhibition at 30 µM turned out to be 11.9%.
Consider `CCN1C[C@]2(OC(=O)c3ccccc3NC(=O)S(=O)(=O)c3ccc(C)cc3F)CC[C@H](OC)[C@]34C1[C@@H](C[C@H]23)[C@@]1(O)C[C@H](OC)[C@H]2C[C@@H]4[C@]1(O)[C@H]2OC`, for which, in data set [1], the viability at 24 h, 30 µM stood at 106%. Besides, in the data set with BV-2, the inhibition at 30 µM was 26.4%.
On the same counts, the results for `CCN1C[C@]2(OC(=O)c3ccccc3NC(=O)S(=O)(=O)c3ccccc3)CC[C@H](OC)[C@]34C1[C@@H](C[C@H]23)[C@@]1(O)C[C@H](OC)[C@H]2C[C@@H]4[C@]1(O)[C@H]2OC` are 97.2% and 31.8%.
`CCCC(C)C(=O)Nc1ccccc1C(=O)O[C@@]12CC[C@H](OC)[C@]34C([C@@H](C[C@H]13)[C@@]1(O)C[C@H](OC)[C@H]3C[C@@H]4[C@]1(O)[C@H]3OC)N(CC)C2` (stereo partly specified): the viability at 24 h, 30 µM in data set [1] was 108%. The inhibition at 30 µM with BV-2 worked out at 57.8%.
On the same counts, the results for `CCC(=O)Nc1ccccc1C(=O)O[C@@]12CC[C@H](OC)[C@]34C([C@@H](C[C@H]13)[C@@]1(O)C[C@H](OC)[C@H]3C[C@@H]4[C@]1(O)[C@H]3OC)N(CC)C2` are 96.1% and 19.1%.
